Results: US20220323761A1, “METHOD FOR INDUCING HIBERNATION-LIKE STATE AND DEVICE SAME” (University of Tsukuba, priority 2019, published 2022)

Assays:
[1] = biological target: T1, hM3Dq in iCre-positive neurons (Homo sapiens, UniProt P20309, A239G/Y149C); assay: Infrared thermography and behaviour of Qrfp-iCre; Rosa26^dreaddm3 mice after IP CNO; format: in vivo
T1 construct: mCherry (C); expressed in transfected cells; host or cells: iCre-expressing neurons of Qrfp-iCre; Rosa26^dreaddm3 mice (CAG-hM3Dq-mCherry at the Rosa26 locus, in vivo)
T1 sequence (P20309 whole entry Y149C/A239G): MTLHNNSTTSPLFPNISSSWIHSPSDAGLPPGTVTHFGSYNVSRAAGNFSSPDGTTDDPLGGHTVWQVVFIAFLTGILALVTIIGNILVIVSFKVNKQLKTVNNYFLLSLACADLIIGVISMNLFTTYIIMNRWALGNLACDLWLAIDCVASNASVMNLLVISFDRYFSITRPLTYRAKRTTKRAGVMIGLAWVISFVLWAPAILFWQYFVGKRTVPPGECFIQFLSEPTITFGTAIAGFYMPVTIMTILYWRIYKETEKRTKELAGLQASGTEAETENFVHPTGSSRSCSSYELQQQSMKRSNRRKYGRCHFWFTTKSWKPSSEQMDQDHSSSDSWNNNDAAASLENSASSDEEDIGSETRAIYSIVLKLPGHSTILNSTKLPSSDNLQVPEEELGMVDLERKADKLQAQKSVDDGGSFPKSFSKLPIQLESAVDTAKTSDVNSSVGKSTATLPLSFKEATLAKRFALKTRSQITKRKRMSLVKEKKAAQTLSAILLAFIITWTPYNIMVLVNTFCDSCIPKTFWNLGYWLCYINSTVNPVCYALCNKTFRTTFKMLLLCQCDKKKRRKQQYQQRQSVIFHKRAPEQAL
Excerpt: For thermographic analysis, the mice were inserted into an experiment cage (25×15×10 cm) and monitored using an infrared thermal imaging camera (InfReC R500 EX; Nippon Avionics) placed 30 cm above the cage floor. To clearly detect the surface temperature, the back hair was removed using hair clippers one day prior to the start of the experiment. Thermograms of DREADD and optogenetic experiments were collected at 0.5 Hz and 1 Hz, respectively, and analyzed using the InfReC Analyzer NS9500 Professional software (Nippon Avionics). The highest temperature of one frame was used as the TS of the animal (FIG. 1d).
(§1) The Dreadd agonist CNO (clozapine N-oxide, Abcam, ab141704) was dissolved in physiological saline at a dose of 100 μg/mL, and the solution was frozen at −20° C. The CNO solution was thawed on site and then administered to each mouse intraperitoneally at a dose of 1 mg/kg. The adenosineAl receptor agonist CHA (N^6-cyclohexyl adenosine, Sigma-Aldrich, C9901) was dissolved in physiological saline at a concentration of 250 μg/mL, and the solution was administered intraperitoneally to each mouse at a dose of 2.5 mg/kg.

hM3Dq in Q-neurons = biological target: T2, hM3Dq in Q-neurons (Homo sapiens, UniProt P20309, A239G/Y149C); assay: Body temperature, respiratory gas, ECG, EEG, respiration and serum analysis of Q-hM3D mice after IP CNO (QIH); format: in vivo
T2 construct: mCherry (C); expressed in transfected cells; host or cells: QRFP-producing (Q) neurons of Qrfp-iCre mice transduced in vivo with AAV10-EF1α-DIO-hM3Dq-mCherry
T2 sequence (P20309 whole entry Y149C/A239G, the tested form may be a part): as the sequence (P20309 whole entry Y149C/A239G) above
Excerpt: In order to record the core body temperature, oxygen consumption amount, EEG, ECG, and respiratory patterns, each animal was housed in a temperature controlled chamber (HC-100, Shin Factory or LP-400P-AR, Nippon Medical & Chemical Instruments Co., Ltd.). In order to continuously record the TB (intraperitoneal temperature), a telemetry temperature sensor (TA11TA-F10, DSI) was implanted into the animal's abdominal cavity under general inhalation anesthesia at least 7 days prior to the recording. The VO 2 and carbon dioxide discharge rate (VCO2) of the animal were continuously recorded using a respiratory gas analyzer (ARCO-2000 mass spectrometer, ARCO System). The respiratory quotient was calculated from the ratio of VCO2/VO2.
The EEG and ECG were recorded using a implanted remote measurement transmitter (F20-EET or HD-X02, DSI). For EEG recording, two stainless steel screws (1 mm in diameter) were soldered to a wire of a telemetry transmitter and inserted under general anesthesia through the skull of the cortex (AP, 1.00 mm; right, 1.50 mm from bregma or lambda). Two other wires from the transmitter were placed on the surface of the thoractic cavity, and an ECG was recorded. The mice were allowed to recover from surgery for at least 10 days. An EEG/ECG data collecting system consisted of transmitters, an analog-digital converter and a recording computer with the software Ponemah Physiology Platform (version 6.30, DSI). The sampling rate was 500 Hz for both the EEG and the ECG, and the data was converted into ASCII format for review. The heart rate was evaluated through a visual inspection of the waveform.
The respiratory flow was recorded using a non-invasive respiratory flow recording system^35. Specifically, a mouse was placed in metabolic chamber (TMC-1213-PMMA, Minamiderika Shokai) having an air flow of at least 0.3 L/min. The chamber was connected to a pressure sensor (PMD-8203-3G, Biotex), and the pressure difference between the outside and inside of the chamber was detected. If the animal is breathing, the pressure difference from the outside to the inside increases during inhalation and decreases during exhalation^35. An analog signal output from the sensor was converted to a digital signal by an AD converter (NI-9205, National Instruments) at 250 Hz, and stored in a computer using data logging software developed by Biotex Inc.
as §1
Blood was collected from the mice under anesthesia through a left ventricular puncture using a 25 gauge needle. The collected blood was stored on ice for less than 2 hours. The sample was centrifuged at 2000 G for 10 minutes at 4° C., and the supernatant was collected and frozen at −30° C. The frozen serum specimens were sent to FUJIFILM Wako Pure Chemical Corporation, and the concentrations of Na (mEq/L), K (mEq/L), Cl (mEq/L), AST (IU/L), ALT (IU/L) LDH (IU/L), CK (IU/L), GLU (mg/dL), and total ketone bodies (μmol/L) were measured.

C[N+]1([O-])CCN(C2=Nc3cc(Cl)ccc3Nc3ccccc32)CC1 [CNO, clozapine N-oxide]
duration of TS reduction [1]: approximately 12 hours | onset of TS reduction after administration [1]: approximately 5 minutes | onset of sustained immobility after injection ([1]; intraperitoneal CNO): approximately 30 minutes | surface body temperature (TS) effect ([1]; thermography camera): significantly sustained hypothermia | duration of extremely low TB state (below 30° C.) (hM3Dq in Q-neurons; IP injection, Q-hM3D mice): ≥ 48 h | hypothermia compared with Qrfp-iCre; Rosa26^dreaddm3 mice (hM3Dq in Q-neurons; IP injection, Q-hM3D mice): deeper, longer sustained hypothermia | QIH after repeated injections in the same mice (hM3Dq in Q-neurons; Q-hM3D mice): reproducible | condition of mice after recovery from QIH (hM3Dq in Q-neurons; Q-hM3D mice): healthy | electroencephalogram (EEG) in QIH (hM3Dq in Q-neurons; Q-hM3D mice): very low amplitude | induction of QIH (hM3Dq in Q-neurons; Q-hM3D mice): effectively induces QIH | tail temperature (hM3Dq in Q-neurons; Q-hM3D mice, 0.5 hours after IP CNO): increases | O2 consumption rate (VO2) change (hM3Dq in Q-neurons; Q-hM3D mice, CNO-induced hypothermic state): significant reduction | TB change after administration (hM3Dq in Q-neurons; Q-hM3D mice, concurrently with Ts): decreases | duration of QIH with TB of less than 30° C. (hM3Dq in Q-neurons; TA=20° C., one dose 1 mg/kg): ≥ 48 h | time for VO2 to fully return to normal (hM3Dq in Q-neurons; TA=20° C., one dose 1 mg/kg): about 1 week | posture during QIH (hM3Dq in Q-neurons; TA=28° C., Q-hM3D mice, n=4): extended posture | blood glucose levels in QIH (hM3Dq in Q-neurons; blood serum chemical data): reduced | effect of CNO on TB with TeTxLC co-expressed in Q-neurons (hM3Dq in Q-neurons; simultaneous infusion of AAV2/9-hSyn-DIO-TeTxLC-eYFP and AAV10-EF1α-DIO-hM3Dq-mCherry): completely eliminated | heart rate (hM3Dq in Q-neurons; two hours after CNO injection, average of n=3, 758 two hours prior): 215 beats/min | VO2 (hM3Dq in Q-neurons; two hours after CNO injection, 3.60 prior): 1.17 mL/g/h | respiratory rate (hM3Dq in Q-neurons; two hours after CNO injection, 333 prior): undetectable
